Publication PMC4036227 (Journal of medicinal chemistry, 2013)

Biological target: WT (S31) M2 proton channel (full length AM2 protein) (Influenza A virus, UniProt P0DOF5)
Test: biochemical
Conditions: read-out: WT % inhibition (TEVC)

Sequence of WT (S31) M2 proton channel (full length AM2 protein) (P0DOF5 whole entry): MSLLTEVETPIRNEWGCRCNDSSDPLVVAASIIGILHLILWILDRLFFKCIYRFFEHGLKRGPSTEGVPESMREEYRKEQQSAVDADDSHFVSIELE

Compound: COC(=O)[C@H](Cc1cnc[nH]1)NCC12CC3CC(CC(C3)C1)C2 [Compound 3]
- inhibition at 100 µM: 21%
